Measurements as given in article PMC5642271 (American journal of veterinary research, 2016).
“Also recorded” adds a separate entry of the source. Where two headings read alike, the source gives them in different places.

Experiments:
[1] = Pharmacokinetics of rapamycin in blood after oral dosing once daily for 5 days; assay type: in vivo, dogs
[2] = test system: dogs with osteosarcoma; details: cited from earlier work
[3] = Pharmacokinetics of rapamycin in blood after a single oral dose; assay type: in vivo, dogs; details: experiment 1: 0.1 mg/kg PO once
[4] = test system: canine osteosarcoma and malignant melanoma cell lines; details: immortalized canine cell lines; cited from earlier work
[5] = test system: healthy dogs; test: Monitoring of adverse effects in healthy dogs during the study; assay type: in vivo; details: 0.1 mg/kg PO once (experiment 1) and once daily for 5 days (experiment 2), vomiting between 3 and 5 hours after administration on day 4 of experiment 2
[6] = test system: mTOR pathway; details: IM 0.01 to 0.08 mg/kg, peripheral blood mononuclear cells and tumor biopsy specimens, each dose cohort; cited from earlier work
[7] = blood samples stored frozen at −80°C for 90 days and subsequently thawed; cited from earlier work
[8] = test system: dogs with experimental renal allografts; details: cited from earlier work
[9] = experiment 2, day 5 of 0.1 mg/kg PO once daily, compartmental NME analysis
[10] = experiment 2: 0.1 mg/kg PO once daily for 5 days, compartmental NME analysis, value before the change on day 5, mean for 4 dogs
[11] = experiment 2: 0.1 mg/kg PO once daily for 5 days, whole blood, mean of n = 4, SD
[12] = compartmental NME analysis, 5 dogs

CO[C@H]1C[C@@H]2CC[C@@H](C)[C@@](O)(O2)C(=O)C(=O)N2CCCC[C@H]2C(=O)O[C@H]([C@H](C)C[C@@H]2CC[C@@H](O)[C@H](OC)C2)CC(=O)[C@H](C)/C=C(\C)[C@@H](O)[C@@H](OC)C(=O)[C@H](C)C[C@H](C)/C=C/C=C/C=C/1C [rapamycin, Rapamycin]
mean V1/f on the last day (day 5) of administration [1, 9]: 16.8 L/kg
mean ka on the last day (day 5) of administration [1, 9]: 2.17 h⁻¹
V2/f, volume of the peripheral compartment after oral administration, mean estimate ([1]; experiment 2: 0.1 mg/kg PO once daily for 5 days, compartmental NME analysis, mean for 4 dogs): 22.1 L/kg
V1/f, volume of the central compartment after oral administration, mean estimate [1, 10]: 4.53 L/kg
ka, absorption rate constant, mean estimate [1, 10]: 0.294 h⁻¹
Tmax (mean ± SD) ([1]; experiment 2: 0.1 mg/kg PO once daily for 5 days, mean of n = 4, SD): 4.5 ± 1.0 h
Cmax (mean ± SD) [1, 11]: 5.49 ± 1.99 ng/mL
concentration 48 hours after drug administration (mean ± SD) [1, 11]: 1.70 ± 0.40 ng/mL
Parameter characterizing the change in ka on the last day (day 5) of rapamycin administration in experiment 2 ([1]; βOCC2 of the NME model, θμD5 = θμD1−4e^βOCC2, P = 0.002): 2.0
Parameter characterizing the change in V1/f on the last day (day 5) of rapamycin administration in experiment 2 ([1]; βOCC2 of the NME model, P = 0.002): 1.31
maximally tolerated dose ([2]; IM injection, doses ranging from 0.01 to 0.08 mg/kg): a maximally tolerated dose was not achieved
injection site reaction ([2]; dog, in vivo): sterile abscesses at the injection site
V1/f, volume of the central compartment after oral administration, mean estimate [3, 12]: 6.74 L/kg
V2/f, volume of the peripheral compartment after oral administration, mean estimate [3, 12]: 18.1 L/kg
ka, absorption rate constant, mean estimate [3, 12]: 0.358 h⁻¹
Cmax (mean ± SD) ([3]; whole blood, mean of n = 5, SD): 8.39 ± 1.73 ng/mL
Tmax (mean ± SD) ([3]; whole blood, mean of n = 5, SD): 3.3 ± 2.5 h
concentration 48 hours after drug administration (mean ± SD) ([3]; whole blood, mean of n = 5, SD): 1.38 ± 0.45 ng/mL
t1/2, terminal half-life (mean ± SD) ([3]; whole blood, noncompartmental, mean of n = 5, SD): 38.7 ± 12.7 h
viable tumor cells after exposure to rapamycin [4]: significant, dose-dependent decrease in viable tumor cells
adverse effects observed [5]: None of the dogs had a substantial change in energy level, appetite, water intake, urination, or defecation; also recorded: One dog vomited once; also recorded: No other adverse effects were observed
modulation of the mTOR pathway [6]: modulation of the mTOR pathway was detected
rapamycin concentration in stored blood samples (stability) [7]: not substantially affected
prevention of renal allograft rejection ([8]; 0.05 mg/kg, IV): did not provide sufficient immunosuppression to prevent rejection of the renal allograft
prevention of renal allograft rejection ([8]; 0.1 mg/kg, IM q 48 h or twice weekly, in combination with cyclosporine and antilymphocyte serum): not sufficient to prevent renal allograft rejection
